Source: ChEMBL document CHEMBL1649266, “Emergence of an Enterobacter hormaechei strain with reduced susceptibility to tigecycline under tigecycline therapy” (2009)
Converted amounts (≈) assume the structure as drawn.

Assays:
Format in all cases: functional
Enterobacter hormaechei [1] = test: Antibacterial activity against Enterobacter hormaechei isolate UCN62
Enterobacter hormaechei [2] = test: Antibacterial activity against Enterobacter hormaechei isolate UCN63 after 3 weeks of treatment
Enterobacter cloacae [3] = test: Antibacterial activity against Enterobacter cloacae UCN62 by Etest
Enterobacter cloacae [4] = test: Antibacterial activity against Enterobacter cloacae UCN63 by broth microdilution method after 3 weeks of treatment; settings: UCN63, 504 h
Enterobacter cloacae [5] = test: Antibacterial activity against Enterobacter cloacae UCN62 by broth microdilution method
Enterobacter cloacae [6] = test: Antibacterial activity against Enterobacter cloacae UCN63 by Etest after 3 weeks of treatment; settings: UCN63, 504 h

Row | Compound | MIC (Enterobacter hormaechei [1]) [µg/mL] | MIC (Enterobacter hormaechei [2]; isolate UCN63, 504 h) [µg/mL] | MIC (Enterobacter cloacae [3]) [µg/mL] | MIC (Enterobacter cloacae [4]) [µg/mL] | MIC (Enterobacter cloacae [5]) [µg/mL] | MIC (Enterobacter cloacae [6]) [µg/mL] | MIC (Enterobacter hormaechei [2]) [µg/mL]
1 | NCC[C@H](O)C(=O)N[C@@H]1C[C@H](N)[C@@H](O[C@H]2O[C@H](CN)[C@@H](O)[C@H](O)[C@H]2O)[C@H](O)[C@H]1O[C@H]1O[C@H](CO)[C@@H](O)[C@H](N)[C@H]1O [AMIKACIN] | 4 (≈ 6.83 µM) | 8 (≈ 13.7 µM) | – | – | – | – | –
2 | CO/N=C(\C(=O)N[C@@H]1C(=O)N2C(C(=O)O)=C(COC(C)=O)CS[C@H]12)c1csc(N)n1 [CEFOTAXIME] | > 64 | > 64 | – | – | – | – | –
3 | O=C(O)c1cn(C2CC2)c2cc(N3CCNCC3)c(F)cc2c1=O [CIPROFLOXACIN] | > 16 | > 16 | – | – | – | – | –
4 | C[C@@H](O)[C@H]1C(=O)N2C(C(=O)O)=C(SCCNC=N)C[C@H]12 [IMIPENEM ANHYDROUS] | 1 (≈ 3.34 µM) | 1 (≈ 3.34 µM) | – | – | – | – | –
5 | CN(C)c1cc(NC(=O)CNC(C)(C)C)c(O)c2c1C[C@H]1C[C@H]3[C@H](N(C)C)C(O)=C(C(N)=O)C(=O)[C@@]3(O)C(O)=C1C2=O [TIGECYCLINE] | 2 (≈ 3.41 µM) | 4 (≈ 6.83 µM) | 1 (≈ 1.71 µM) | 4 (≈ 6.83 µM) | 2 (≈ 3.41 µM) | 3 (≈ 5.12 µM) | –
6 | GENTAMICIN | > 32 | – | – | – | – | – | > 32
